From patent US20260070945A1, “MACROCYCLIC IMMUNOMODULATORS” (Bristol-Myers Squibb Company, priority 2022, published 2026) come the findings set out here.

Each structure is given as a SMILES string. *1 amine or outer side, *2 acyl side, *3 side chain or, on linkers, in order; H or OH if unused. Where a SMILES comes first, the peptide text is derived from it. Bridges are numbered along the chain shown (N, C = ends). [ ]: non-standard residue; d: D form. The star is where a group is joined. X5 = O=C([C@H](Cc1ccc(-c2cc(F)c(F)c(F)c2)cc1)N[*:1])[*:2]; Phe(3-CF3) = N[C@@H](Cc1cccc(C(F)(F)F)c1)C(=O)O; Phe(4-COOH) = N[C@@H](Cc1ccc(C(=O)O)cc1)C(=O)O; Bip = N[C@@H](Cc1ccc(-c2ccccc2)cc1)C(=O)O; Phe(3-Cl) = N[C@@H](Cc1cccc(Cl)c1)C(=O)O; Phe(3-Me) = Cc1cccc(C[C@H](N)C(=O)O)c1; X6 = O=C(Cc1ccc(CN[*:1])cc1)[*:2]; dAla(cPr) = N[C@H](CC1CC1)C(=O)O; Cha = N[C@@H](CC1CCCCC1)C(=O)O; dCba = N[C@H](CC1CCC1)C(=O)O; Carboxymethyl = O=C(O)C*; NMeA = CN[C@@H](C)C(=O)O; Orn = NCCC[C@H](N)C(=O)O; Pra = C#CC[C@H](N)C(=O)O; Aun = NCCCCCCCCCCC(=O)O; Dab = NCC[C@H](N)C(=O)O; AEEA = NCCOCCOCC(=O)O; Ac3c = NC1(C(=O)O)CC1

T1 sequence (Q15116 25-288): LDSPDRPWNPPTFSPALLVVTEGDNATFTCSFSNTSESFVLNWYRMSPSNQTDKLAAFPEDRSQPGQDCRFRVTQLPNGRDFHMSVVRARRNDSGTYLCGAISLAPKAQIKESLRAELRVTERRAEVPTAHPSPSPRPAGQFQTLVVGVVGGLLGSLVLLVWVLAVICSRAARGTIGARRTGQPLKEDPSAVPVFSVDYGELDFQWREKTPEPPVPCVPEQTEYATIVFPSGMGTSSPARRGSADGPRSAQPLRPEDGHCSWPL

This test addresses T1, PD-1/PD-L1 interaction (PE-labeled human PD-L1-Ig binding to Jurkat cell line over-expressing human PD-1) (Homo sapiens, UniProt Q15116).
T1 construct: expressed in transfected cells; host or cells: Jurkat
Description: Jurkat-PD-1 Cell Binding High-Content Screening Assay (CBA). To be noted: Jurkat-hPD-1 cells, PE-labeled PD-L1-Ig 20 nM final; read-out: Jurkat HPD1 PDL1 IC50. In a few lines: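 Binding of 20 nM (final) PE-tagged PD-L1-Ig to compound-pretreated Jurkat-hPD-1 cells was measured by high-content imaging after 1 h. Pretreatment ran 2 h at 37 °C in DMEM with 10% fetal calf serum.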
As a reminder, the IC50 is the concentration needed to halve the response being measured. With `CC(C)C[C@H]1NC(=O)[C@H](C)N(C)C(=O)[C@H](Cc2ccc(OCC(=O)O)cc2)NC(=O)[C@H](Cc2ccc(-c3cc(F)c(F)c(F)c3)cc2)NC(=O)[C@H](Cc2ccc(C(=O)O)cc2)NC(=O)[C@H](Cc2cccc(C(F)(F)F)c2)NC(=O)[C@H](CC(=O)O)NC(=O)[C@H](Cc2ccc(OCC(=O)O)cc2)NC(=O)[C@H]([C@@H](C)O)NC(=O)CSC[C@@H](C(=O)N[C@@H](CCN)C(=O)NCCCCCCCCCCC(=O)O)NC(=O)[C@H]([C@@H](C)O)NC(=O)[C@H](C(C)C)NC(=O)[C@H](CC2CCCCC2)NC(=O)[C@H](CCN)NC1=O` [Example 1237] ({CH2CO}-TY(Carboxymethyl)D[Phe(3-CF3)][Phe(4-COOH)][X5]Y(Carboxymethyl)[NMeA][dL][Dab][Cha]VTC[Dab][Aun]-OH; thioether N-14), the IC50 amounted to 180 nM. The same measure for `C#CC[C@H](NC(=O)[C@H](CCN)NC(=O)[C@@H]1CSCC(=O)N[C@@H]([C@@H](C)O)C(=O)N[C@@H](Cc2ccc(OCC(=O)O)cc2)C(=O)N[C@@H](CC(=O)O)C(=O)N[C@@H](Cc2cccc(C(F)(F)F)c2)C(=O)N[C@@H](Cc2ccc(C(=O)O)cc2)C(=O)N[C@@H](Cc2ccc(-c3ccccc3)cc2)C(=O)N[C@@H](Cc2ccc(OCC(=O)O)cc2)C(=O)N(C)[C@@H](C)C(=O)N[C@H](CC(C)C)C(=O)N[C@@H](CCN)C(=O)N[C@@H](CC2CCCCC2)C(=O)N[C@@H](C(C)C)C(=O)N[C@@H]([C@@H](C)O)C(=O)N1)C(=O)NCCCCCCCCCCC(=O)O` [Example 1238] ({CH2CO}-TY(Carboxymethyl)D[Phe(3-CF3)][Phe(4-COOH)][Bip]Y(Carboxymethyl)[NMeA][dL][Dab][Cha]VTC[Dab][Pra][Aun]-OH; thioether N-14): 14.9 nM; for `C#CC[C@H](NC(=O)[C@H](CCN)NC(=O)[C@@H]1CSCC(=O)N[C@@H]([C@@H](C)O)C(=O)N[C@@H](Cc2ccc(OCC(=O)O)cc2)C(=O)N[C@@H](CC(=O)O)C(=O)N[C@@H](Cc2cccc(Cl)c2)C(=O)N[C@@H](Cc2ccc(C(=O)O)cc2)C(=O)N[C@@H](Cc2ccc(-c3ccccc3)cc2)C(=O)N[C@@H](Cc2ccc(OCC(=O)O)cc2)C(=O)N(C)[C@@H](C)C(=O)N[C@H](CC(C)C)C(=O)N[C@@H](CCN)C(=O)N[C@@H](CC2CCCCC2)C(=O)N[C@@H](C(C)C)C(=O)N[C@@H]([C@@H](C)O)C(=O)N1)C(=O)NCCCCCCCCCCC(=O)O` [Example 1239] ({CH2CO}-TY(Carboxymethyl)D[Phe(3-Cl)][Phe(4-COOH)][Bip]Y(Carboxymethyl)[NMeA][dL][Dab][Cha]VTC[Dab][Pra][Aun]-OH; thioether N-14): 10.5 nM. In the case of `C#CC[C@H](NC(=O)[C@H](CCN)NC(=O)[C@@H]1CSCC(=O)N[C@@H]([C@@H](C)O)C(=O)N[C@@H](Cc2ccc(OCC(=O)O)cc2)C(=O)N[C@@H](CC(=O)O)C(=O)N[C@@H](Cc2cccc(C)c2)C(=O)N[C@@H](Cc2ccc(C(=O)O)cc2)C(=O)N[C@@H](Cc2ccc(-c3ccccc3)cc2)C(=O)N[C@@H](Cc2ccc(OCC(=O)O)cc2)C(=O)N(C)[C@@H](C)C(=O)N[C@H](CC(C)C)C(=O)N[C@@H](CCN)C(=O)N[C@@H](CC2CCCCC2)C(=O)N[C@@H](C(C)C)C(=O)N[C@@H]([C@@H](C)O)C(=O)N1)C(=O)NCCCCCCCCCCC(=O)O` [Example 1240] ({CH2CO}-TY(Carboxymethyl)D[Phe(3-Me)][Phe(4-COOH)][Bip]Y(Carboxymethyl)[NMeA][dL][Dab][Cha]VTC[Dab][Pra][Aun]-OH; thioether N-14) it was 20.7 nM. In the case of `Cc1cccc(C[C@@H]2NC(=O)[C@H](CC(=O)O)NC(=O)[C@H](Cc3ccc(OCC(=O)O)cc3)NC(=O)[C@H]([C@@H](C)O)NC(=O)CSC[C@@H](C(=O)N[C@@H](CCN)C(=O)N[C@@H](Cc3cn(CC(=O)NCCCNC(=O)c4cc(F)c(F)c(F)c4)nn3)C(=O)NCCCCCCCCCCC(=O)O)NC(=O)[C@H]([C@@H](C)O)NC(=O)[C@H](C(C)C)NC(=O)[C@H](CC3CCCCC3)NC(=O)[C@H](CCN)NC(=O)[C@@H](CC(C)C)NC(=O)[C@H](C)N(C)C(=O)[C@H](Cc3ccc(OCC(=O)O)cc3)NC(=O)[C@H](Cc3ccc(-c4ccccc4)cc3)NC(=O)[C@H](Cc3ccc(C(=O)O)cc3)NC2=O)c1` [Example 1241] it was 23.3 nM; in that of `CC(C)C[C@@H]1NC(=O)[C@H](Cc2c[nH]c3ccccc23)NC(=O)[C@H](CC(=O)O)NC(=O)[C@H](Cc2ccc(C(=O)O)cc2)NC(=O)[C@H](Cc2ccc(OCC(=O)O)cc2)NC(=O)CSC[C@@H](C(=O)N[C@@H](CCCN)C(=O)NCCOCCOCC(=O)NCCCCCCCCCCC(=O)O)NC(=O)[C@@H](CO)NC(=O)[C@H](C(C)C)NC(=O)[C@H](CC2CCCCC2)NC(=O)[C@H](CCN)NC(=O)[C@@H](CC(C)C)NC(=O)[C@H](C)N(C)C(=O)[C@H](C(C)C)NC(=O)[C@H](Cc2ccc(-c3ccccc3)cc2)NC1=O` [Example 1242] ({CH2CO}-Y(Carboxymethyl)[Phe(4-COOH)]DWL[Bip]V[NMeA][dL][Dab][Cha]V[dS]C[Orn][AEEA][Aun]-OH; thioether N-14), 19.8 nM; in that of `CC(C)C[C@@H]1NC(=O)[C@H](Cc2c[nH]c3ccccc23)NC(=O)[C@H](CC(=O)O)NC(=O)[C@H](Cc2ccc(C(=O)O)cc2)NC(=O)[C@H](Cc2ccc(OCC(=O)O)cc2)NC(=O)CSC[C@@H](C(=O)N[C@@H](CCCN)C(=O)NCc2ccc(CC(=O)NCCCCCCCCCCC(=O)O)cc2)NC(=O)[C@H](CO)NC(=O)[C@H](C(C)C)NC(=O)[C@H](CC2CCCCC2)NC(=O)[C@H](CCN)NC(=O)[C@@H](CC(C)C)NC(=O)[C@H](C)N(C)C(=O)[C@H](C(C)C)NC(=O)[C@H](Cc2ccc(-c3ccccc3)cc2)NC1=O` [Example 1243] ({CH2CO}-Y(Carboxymethyl)[Phe(4-COOH)]DWL[Bip]V[NMeA][dL][Dab][Cha]VSC[Orn][X6][Aun]-OH; thioether N-14), 28 nM. On to `CC(C)C[C@@H]1NC(=O)[C@H](Cc2c[nH]c3ccccc23)NC(=O)[C@H](CC(=O)O)NC(=O)[C@H](Cc2ccc(C(=O)O)cc2)NC(=O)[C@H](Cc2ccc(OCC(=O)O)cc2)NC(=O)CSC[C@@H](C(=O)N[C@@H](CCCCN)C(=O)NCc2ccc(CC(=O)NCCCCCCCCCCC(=O)O)cc2)NC(=O)[C@H](CO)NC(=O)[C@H](C(C)C)NC(=O)[C@H](CC2CCCCC2)NC(=O)[C@H](CCN)NC(=O)[C@@H](CC(C)C)NC(=O)[C@H](C)N(C)C(=O)[C@H](C(C)C)NC(=O)[C@H](Cc2ccc(-c3ccccc3)cc2)NC1=O` [Example 1245] ({CH2CO}-Y(Carboxymethyl)[Phe(4-COOH)]DWL[Bip]V[NMeA][dL][Dab][Cha]VSCK[X6][Aun]-OH; thioether N-14), for which the IC50 came to 18.2 nM.

As to `CC(C)C[C@@H]1NC(=O)[C@H](Cc2c[nH]c3ccccc23)NC(=O)[C@H](CC(=O)O)NC(=O)[C@H](Cc2ccc(C(=O)O)cc2)NC(=O)[C@H](Cc2ccc(OCC(=O)O)cc2)NC(=O)CSC[C@@H](C(=O)N[C@@H](CCCCN)C(=O)NCCOCCOCC(=O)NCCCCCCCCCCC(=O)O)NC(=O)[C@@H](CO)NC(=O)[C@H](C(C)C)NC(=O)[C@H](CC2CCCCC2)NC(=O)[C@H](CCN)NC(=O)[C@@H](CC(C)C)NC(=O)[C@H](C)N(C)C(=O)[C@H](C(C)C)NC(=O)[C@H](Cc2ccc(-c3ccccc3)cc2)NC1=O` [Example 1246] ({CH2CO}-Y(Carboxymethyl)[Phe(4-COOH)]DWL[Bip]V[NMeA][dL][Dab][Cha]V[dS]CK[AEEA][Aun]-OH; thioether N-14), the IC50 is 31.9 nM. In the case of `CC(C)C[C@@H]1NC(=O)[C@H](Cc2c[nH]c3ccccc23)NC(=O)[C@H](CC(=O)O)NC(=O)[C@H](Cc2ccc(OCC(=O)O)cc2)NC(=O)[C@H](Cc2ccc(OCC(=O)O)cc2)NC(=O)CSC[C@@H](C(=O)NC2(C(=O)NCCOCCOCC(=O)NCCCCCCCCCCC(=O)O)CC2)NC(=O)[C@H](CCCNC(=N)N)NC(=O)[C@H](C(C)C)NC(=O)[C@H](CC2CCCCC2)NC(=O)[C@H](CCN)NC(=O)[C@@H](CC(C)C)NC(=O)[C@H](C)N(C)C(=O)[C@H](C(C)C)NC(=O)[C@H](Cc2ccc(-c3ccccc3)cc2)NC1=O` [Example 1247] ({CH2CO}-Y(Carboxymethyl)Y(Carboxymethyl)DWL[Bip]V[NMeA][dL][Dab][Cha]VRC[Ac3c][AEEA][Aun]-OH; thioether N-14) it was 4.1 nM; in that of `CC(C)C[C@@H]1NC(=O)[C@H](Cc2c[nH]c3ccccc23)NC(=O)[C@H](CC(=O)O)NC(=O)[C@H](Cc2ccc(C(=O)O)cc2)NC(=O)[C@H](Cc2ccc(OCC(=O)O)cc2)NC(=O)CSC[C@@H](C(=O)N[C@@H](CCCN)C(=O)NCCOCCOCC(=O)NCCCCCCCCCCC(=O)O)NC(=O)[C@H](CO)NC(=O)[C@H](C(C)C)NC(=O)[C@H](CC2CCCCC2)NC(=O)[C@H](CCN)NC(=O)[C@@H](CC2CC2)NC(=O)[C@H](C)N(C)C(=O)[C@H](C(C)C)NC(=O)[C@H](Cc2ccc(-c3ccccc3)cc2)NC1=O` [Example 1248] ({CH2CO}-Y(Carboxymethyl)[Phe(4-COOH)]DWL[Bip]V[NMeA][dAla(cPr)][Dab][Cha]VSC[Orn][AEEA][Aun]-OH; thioether N-14), 18 nM; in that of `CC(C)C[C@@H]1NC(=O)[C@H](Cc2c[nH]c3ccccc23)NC(=O)[C@H](CC(=O)O)NC(=O)[C@H](Cc2ccc(C(=O)O)cc2)NC(=O)[C@H](Cc2ccc(OCC(=O)O)cc2)NC(=O)CSC[C@@H](C(=O)N[C@@H](CCCN)C(=O)NCCOCCOCC(=O)NCCCCCCCCCCC(=O)O)NC(=O)[C@H](CO)NC(=O)[C@H](C(C)C)NC(=O)[C@H](CC2CCCCC2)NC(=O)[C@H](CCN)NC(=O)[C@@H](CC2CCC2)NC(=O)[C@H](C)N(C)C(=O)[C@H](C(C)C)NC(=O)[C@H](Cc2ccc(-c3ccccc3)cc2)NC1=O` [Example 1249] ({CH2CO}-Y(Carboxymethyl)[Phe(4-COOH)]DWL[Bip]V[NMeA][dCba][Dab][Cha]VSC[Orn][AEEA][Aun]-OH; thioether N-14), 29.5 nM.
